According to patent publication US8946273B2, “S-Triazolyl alpha-mercapto acetanilides as inhibitors of HIV reverse transcriptase” (priority 2011, dated 2015):
pEC50, pIC50: −log10 of the molar value. Like-named read-outs stand apart in the source and are kept apart here.

Assays:
[1] = target: mutant HIV reverse transcriptases (Human immunodeficiency virus type 1, UniProt P12497, Y775L, cells depend on it); format: cell-based
[2] = target: mutant HIV reverse transcriptases (Human immunodeficiency virus type 1, UniProt P12497, Y768C, cells depend on it); format: cell-based
wild type HIV-1 = test: microbe, parasite or virus in culture; format: cell-based, human immunodeficiency virus type 1 (HIV-1)
[3] = target: T1, wild-type HIV reverse transcriptase (Human immunodeficiency virus type 1 group M subtype B, UniProt P04585); test: Activity on wild type reverse transcriptase (Table 1 IC50 WT); format: biochemical
T1 construct: wild-type and four mutant HIV reverse transcriptases
Experimental: Using similar methods as described above, 2-[5-bromo-4-(4-cyclopropylnaphthalen-1-yl)-4H-[1,2,4]triazol-3-ylsulfanyl]-N-(2-methyl-4-sulfamoylphenyeacetamide and 2-[5-bromo-4-(4-ethylnaphthalen-1-yl)-4H-[1,2,4]triazol-3-ylsulfanyl]-N-(2-chloro-4-sulfamoylphenyl)-acetamide were synthesized, as were the N-4-carbamyl analog, 2-[5-bromo-4-(4-ethyl-naphthalen-1-yl)-4H-[1,2,4]triazol-3-ylsulfanyl]-N-(2-chloro-4-carbamoylphenyl)-acetamide and the N-4-carboxyl analog. Each of the compounds was tested against a panel of mutant HIV reverse transcriptases, including 20 of the 22 of the mutants that are found in about 2% or more of the patient samples that are resistant to the most widely used non-nucleoside HIV-RT inhibitor efavirenz ((4S)-6-chloro-4-(cyclopropylethynyl)-1,4-dihydro-4-(trifluoromethyl)-2H-3,1-benzoxazin-2-one). […] In most cases both criteria were met. […] […].
Compounds of the invention were tested against the wild-type and four mutant HIV reverse transcriptases. The results are listed in Table 1 as EC50 (nM) and IC50 (nM). In the Table, A represents <50 nM, B is between 50 and 100 nM, and C is >100 nM. ND is not determined.

[4] = Human immunodeficiency virus 1, Hela-JC53, read-out: EC50 WT
[5] = read-out: EC50 WT, wild-type (WT) HIV-1

Row | Structure (SMILES) | pEC50 [1] | pEC50 [2] | pEC50 (wild type HIV-1; [4]) | pIC50 [3] | pEC50 (wild type HIV-1; [5])
1 | Cc1cc(C)c2ccccc2c1-n1c(SCC(=O)Nc2ccc(S(N)(=O)=O)cc2Cl)nnc1C(F)(F)F [compound 83] | > 7.30 | > 7.30 | > 7.30 | > 7.30 | 
2 | Cc1ccc2c(C)cc(C)c(-n3c(SCC(=O)Nc4ccc(S(N)(=O)=O)cc4C)nnc3C(F)F)c2n1 [compound 64] | > 7.30 | > 7.30 | > 7.30 | > 7.30 | 
3 | CCc1ccc(-n2c(Br)nnc2SCC(=O)Nc2ccc(C(=O)NCC(C)(C)N)cc2Cl)c2ccccc12 [compound 136] | > 7.30 | > 7.30 | > 7.30 | > 7.30 | 
4 | Cc1cc(C(=O)O)ccc1NC(=O)CSc1nnc(Br)n1-c1ccc(C2CC2)c2ccccc12 [compound 35] |  |  | > 7.30 | > 7.30 | 
5 | Cc1cc(C2CC2)c2ccccc2c1-n1c(Br)nnc1SCC(=O)Nc1ccc(S(=O)(=O)O)cc1Cl [compound 15] | < 7.00 | 7.00 to 7.30 | > 7.30 | > 7.30 | 
6 | CCc1cc(C2CC2)ccc1-n1c(Br)nnc1SCC(=O)Nc1ccc(C(=O)O)cc1Cl [compound 29] | < 7.00 | > 7.30 | > 7.30 | > 7.30 | 
7 | NS(=O)(=O)c1ccc(NC(=O)CSc2nnc(Br)n2-c2c(Cl)cc(C3CCC3)c3ccccc23)c(Cl)c1 [compound 91] | > 7.30 | > 7.30 | > 7.30 |  | 
8 | CCc1ccc(-n2c(Br)nnc2SCC(=O)Nc2ccc(C(=O)NCCCCO)cc2Cl)c2ccccc12 [compound 137] | > 7.30 | > 7.30 | > 7.30 | > 7.30 | 
9 | CCOC(=O)CN(C)C(=O)c1ccc(NC(=O)CSc2nnc(Br)n2-c2ccc(C3CC3)c3ccccc23)c(Cl)c1 [compound 109] | > 7.30 | > 7.30 | > 7.30 | 7.00 to 7.30 | 
10 | CCc1ccc(-n2c(CF)nnc2SCC(=O)Nc2ccc(S(N)(=O)=O)cc2Cl)c2c1CCCC2 [compound 67] | > 7.30 | > 7.30 | > 7.30 | > 7.30 | 
11 | COc1ccc2c(C3CC3)ccc(-n3c(Br)nnc3SCC(=O)Nc3ccc(S(N)(=O)=O)cc3Cl)c2c1 [compound 72] | > 7.30 | > 7.30 | > 7.30 | > 7.30 | 
12 | Cc1cc(C)c2ccccc2c1-n1c(CF)nnc1SCC(=O)Nc1ccc(S(N)(=O)=O)cc1Cl [compound 53] | > 7.30 | > 7.30 | > 7.30 |  | 
13 | CCOC(=O)[C@H](Cc1ccc(O)cc1)NC(=O)c1ccc(NC(=O)CSc2nnc(Br)n2-c2ccc(C3CC3)c3ccccc23)c(Cl)c1 [compound 114] | < 7.00 | > 7.30 | > 7.30 | 7.00 to 7.30 | 
14 | CCc1ccc(-n2c(Br)nnc2SCC(=O)Nc2ccc(C(=O)NCCC#N)cc2Cl)c2ccccc12 [compound 130] | > 7.30 | > 7.30 | > 7.30 | > 7.30 | 
15 | O=C(CSc1nnc(Br)n1-c1c(Cl)cc(C2CCC2)c2ccccc12)Nc1ccc(C(=O)O)cc1Cl [compound 25] | > 7.30 | > 7.30 | > 7.30 | > 7.30 | 
16 | NS(=O)(=O)c1ccc(NC(=O)CSc2nnc(Br)n2-c2ccc(C3CC3)c3ccccc23)c(Cl)c1 [compound 77] | < 7.00 | 7.00 to 7.30 | > 7.30 |  | 
17 | CCc1ccc(-n2c(CF)nnc2SCC(=O)Nc2ccc(C(=O)O)cc2Cl)c2ccccc12 [compound 17] | < 7.00 | > 7.30 | > 7.30 | > 7.30 | 
18 | NS(=O)(=O)c1ccc(NC(=O)CSc2nnc(Br)n2-c2ccc(C3CCC3)c3ccccc23)c(Cl)c1 [compound 95] | > 7.30 | > 7.30 | > 7.30 |  | 
19 | COC(=O)[C@H](CC(C)C)NC(=O)c1ccc(NC(=O)CSc2nnc(Br)n2-c2ccc(C3CC3)c3ccccc23)c(Cl)c1 [compound 115] | 7.00 to 7.30 | > 7.30 | > 7.30 | > 7.30 | 
20 | CCOC(=O)CCNC(=O)c1ccc(NC(=O)CSc2nnc(Br)n2-c2ccc(C3CC3)c3ccccc23)c(Cl)c1 [compound 104] | > 7.30 | > 7.30 | > 7.30 | > 7.30 | 
21 | COC(=O)[C@@H](NC(=O)c1ccc(NC(=O)CSc2nnc(Br)n2-c2ccc(C3CC3)c3ccccc23)c(Cl)c1)C(C)C [compound 103] | 7.00 to 7.30 | > 7.30 | > 7.30 | > 7.30 | 
22 | CCOC(=O)CCNC(=O)c1ccc(NC(=O)CSc2nnc(Br)n2-c2ccc(CC)c3ccccc23)c(Cl)c1 [compound 107] | < 7.00 | > 7.30 | > 7.30 | > 7.30 | 
23 | Cc1cc(S(N)(=O)=O)ccc1NC(=O)CSc1nnc(C)n1-c1ccc(C)c2c1CCCC2 [compound 45] | 7.00 to 7.30 | > 7.30 | > 7.30 | > 7.30 | 

Row | Structure (SMILES) | pEC50 [1] | pEC50 [2] | pEC50 (wild type HIV-1; [4]) | pIC50 [3] | pEC50 (wild type HIV-1; [5])
24 | Cc1cc(S(N)(=O)=O)ccc1NC(=O)CSc1nnc(CF)n1-c1c(C)cc(C)c2ccccc12 [compound 52] | > 7.30 | > 7.30 | > 7.30 | > 7.30 | 
25 | COc1ccc2c(C)ccc(-n3c(Br)nnc3SCC(=O)Nc3ccc(C(=O)O)cc3Cl)c2c1 [compound 18] | > 7.30 | > 7.30 |  |  | 
26 | COc1ccc2c(C3CC3)ccc(-n3c(Br)nnc3SCC(=O)Nc3ccc(C(=O)O)cc3Cl)c2c1 [compound 34] | > 7.30 | > 7.30 | > 7.30 |  | 
27 | CCc1ccc(-n2c(Br)nnc2SCC(=O)Nc2ccc(S(N)(=O)=O)cc2Cl)c2c1CCCC2 [compound 79] | > 7.30 | > 7.30 | > 7.30 |  | 
28 | NS(=O)(=O)c1ccc(NC(=O)CSc2nnc(Br)n2-c2ccc(C3CC3)c3ccccc23)c(Cl)c1 [compound 42] | > 7.30 | > 7.30 |  |  | > 7.30
29 | N#Cc1cccc2c(-n3c(SCC(=O)Nc4ccc(S(N)(=O)=O)cc4Cl)nnc3C(F)F)cccc12 [compound 96] | < 7.00 | > 7.30 |  |  | 
30 | Cc1cc(C2CC2)ccc1-n1c(Br)nnc1SCC(=O)Nc1ccc(S(N)(=O)=O)cc1Cl [compound 88] | > 7.30 | > 7.30 | > 7.30 |  | 
31 | Cc1cc(S(N)(=O)=O)ccc1NC(=O)CSc1nnc(Br)n1-c1ccc(C2CCC2)c2ccccc12 [compound 94] | > 7.30 | > 7.30 |  |  | 
32 | NS(=O)(=O)c1ccc(NC(=O)CSc2nnc(Br)n2-c2ccc(C3CC3)cc2)c(Cl)c1 [compound 78] | < 7.00 | > 7.30 |  |  | 
33 | Cc1cc(S(N)(=O)=O)ccc1NC(=O)CSc1nnc(Br)n1-c1ccc(C)c2c1CCCC2 [compound 80] | > 7.30 | > 7.30 | > 7.30 |  | 
34 | Cc1cc(C)c2ccccc2c1-n1c(CF)nnc1SCC(=O)Nc1ccc(S(N)(=O)=O)cc1Cl [compound 82] |  | > 7.30 |  |  | > 7.30
35 | Cc1cc(C2CC2)cc(Cl)c1-n1c(Br)nnc1SCC(=O)Nc1ccc(S(N)(=O)=O)cc1Cl [compound 93] | > 7.30 | > 7.30 |  |  | 
36 | CCc1ccc(-n2c(Br)nnc2SCC(=O)Nc2ccc(C(=O)O)cc2Cl)c2ccccc12 [compound 9] |  | > 7.30 |  |  | > 7.30
37 | Cc1cc(C2CC2)cc(Cl)c1-n1c(Br)nnc1SCC(=O)Nc1ccc(C(=O)O)cc1Cl [compound 28] | > 7.30 | > 7.30 |  |  | 
38 | NS(=O)(=O)c1ccc(NC(=O)CSc2nnc(Br)n2-c2ccc(C3CC3)c3ccccc23)c(Cl)c1 [compound 39] | > 7.30 | > 7.30 |  |  | > 7.30
39 | NS(=O)(=O)c1ccc(NC(=O)CSc2nnc(Br)n2-c2ccc(C3CC3)cc2OC(F)(F)F)c(Cl)c1 [compound 90] | 7.00 to 7.30 | > 7.30 |  |  | 
40 | CCc1ccc(-n2c(Br)nnc2SCC(=O)Nc2ccc(S(N)(=O)=O)cc2Cl)c2ccccc12 [compound 87] | > 7.30 | > 7.30 | > 7.30 |  | 
41 | Cc1ccc2c(C)ccc(-n3c(Br)nnc3SCC(=O)Nc3ccc(S(N)(=O)=O)cc3Br)c2c1 [compound 81] | > 7.30 | > 7.30 | > 7.30 |  | 
42 | Cc1ccc2ccccc2c1-n1c(Br)nnc1SC(C)C(=O)Nc1ccc(S(N)(=O)=O)cc1Cl (stereo not shown) [compound 141] |  |  | > 7.30 | > 7.30 | 
43 | CCCc1ccc(-n2c(Br)nnc2SCC(=O)Nc2ccc(S(N)(=O)=O)cc2Cl)c2ccccc12 [compound 85] | > 7.30 | > 7.30 | > 7.30 |  | 
44 | NS(=O)(=O)c1ccc(NC(=O)CSc2nnc(Cl)n2-c2ccc(C3CC3)c3ccccc23)c(Cl)c1 [compound 89] | > 7.30 | > 7.30 | > 7.30 |  | 
45 | CC(Sc1nnc(Br)n1-c1ccc(C2CC2)c2ccccc12)C(=O)Nc1ccc(S(N)(=O)=O)cc1Cl (stereo not shown) [compound 76] | < 7.00 | 7.00 to 7.30 |  |  | 
46 | CCCc1ccc(-n2c(Br)nnc2SCC(=O)Nc2ccc(S(N)(=O)=O)cc2C)c2ccccc12 [compound 86] | > 7.30 | > 7.30 | > 7.30 |  | 
